The values that follow come from article PMC12677599 (Advanced Science, 2025).

One series concerns HEK-293 normal cell line. Nature of the series: cells. It counts as cell-based. Particulars: 24 h. As to the method: (§1) MTT assay was conducted as previously described.^[ [44] ^] Tumor cell lines (NCI‐H460, NCI‐H838, HT‐1080, MCF‐7, PC‐3, U‐251‐MG, and U‐87 MG) were seeded in 96‐well plates at a density of 8000 cells per well in a volume of 100 µL and cultured for 24 h. Normal cell lines (HaCaT, HMEC‐1, MRC‐5, and HEK‐293) were seeded in 96‐well plates at a density of 10 000 cells per well in a volume of 100 µL and cultured for 48 h. After that, only tumor cell lines were starved with 100 µL of SFM for a further 4–6 h. Subsequently, cells were treated with 100 µL of compound solutions with different concentrations for 24 h. Cells treated with SFM and 0.5% DMSO in SFM served as blank control and growth control, respectively. Ten µL of MTT solution (5 mg mL^−1) was added to each well, followed by an additional incubation period of 2 h for tumor cells and 4 h for normal cells. Finally, the solvent in each well was swapped with 100 µL of DMSO to dissolve the formazan crystals. The absorbance was measured by the plate reader at 570 nm.
(§2) The cell viability was calculated (1) Cellviability%=ODSamplegroup−ODBlank/ODGrowthgroup−ODBlank×100%

Series [1] relates to Paclitaxel-resistance (DR-PTX) H460 cell line. It counts as cell-based. Conditions: 24 h. Here is the method:
as §1
(§3) Wild type H460 cells were cultured in a T‐75 flask and exposed to 30 µM of cisplatin. Cells were passed when the confluency reached 90%. The IC50 value of cisplatin on this cell line was evaluated every two passages. After the IC50 value was higher than 500 µM, the cultured medium was changed to normal CGM, and the cell line was cultured for another three passages. The IC50 value was evaluated again to make sure the resistance was stable. The other three resistance cell lines establishment process was similar. […] Parental NCI‐H460 cells were exposed to 10 µM 5‐fluorouracil, 2.5 µM paclitaxel, or 2.5 µM etoposide to generate 5‐fluorouracil‐resistant, paclitaxel‐resistant, and etoposide‐resistant cell lines, respectively.

The test system of series [2] is Etoposide-resistance (DR-EPT) H460 cell line. The format is cell-based. Particulars: 24 h. Here is the method: as §1, §3
The test system of series [3] is Cisplatin-resistance H460 cell line. The format is cell-based. Particulars: 24 h. As to the method:
as §1, §3

In series [4] the test system is 5-Fluorouracil-resistance H460 cell line. It counts as cell-based. Conditions: 24 h. As to the method: as §1, §3
A further series concerns HMEC-1 normal cell line. It counts as cell-based. Conditions: 24 h. Here is the method:
as §1, §2

A further series has as its system MRC-5 normal cell line. The format is cell-based. Particulars: 24 h. Here is the method:
as §1, §2

A further series deals with HT-1080 cell line. The format is cell-based. Conditions: 24 h. Here is the method:
as §1, §2

A further series concerns HaCaT normal cell line. The format is cell-based. Conditions: 24 h. Here is the method:
as §1, §2

A further series concerns H838 cell line. The format is cell-based. Conditions: 24 h. Here is the method:
as §1, §2

Series [5] concerns H460 cell line. The format is cell-based. Particulars: 24 h. As to the method:
as §1
The antimicrobial stability evaluation was determined in the presence of physiological concentrations of serum. Twenty five µL of compound solutions with the concentration of 3 mM and 25 µL of human serum were mixed. The mixture was incubated for 0, 2, 4, 6, 12, 24 h at 37 °C and then incubated for 15 min at 60 °C to inactivate the enzymes. […]

The next series has as its system erythrocytes. It counts as cell-based. Conditions: red cells of horse, 2 h. Here is the method: Defibrinated horse blood (1 mL) was washed 3 times with 0.9% NaCl solution to remove plasma and then resuspended in 20 mL of 0.9% NaCl solution to obtain a red blood cell (RBC) suspension. Aliquots of the RBC suspension (100 µL) were incubated with 100 µL of compound solutions at concentrations ranging from 100 to 1.5625 µM (twofold serial dilution) for 2 h at 37 °C. RBCs treated with 0.9% NaCl solution and 1% Triton X‐100 solution served as blank and positive controls, respectively. Subsequently, the samples were centrifuged at 900 × g for 10 min, and the absorbance of the supernatant was measured at 570 nm.
The hemolysis ratio was calculated as (2) Hemolysis%=ODSamplegroup−ODBlank/ODPositivegroup−ODBlank×100%

The nature of series [6]: Compound remaining evaluation in human serum. It counts as in vitro ADME. Conditions: 50% human serum, 37 °C, HPLC peak area, n = 2; up to 6 h (239-4-Ac) or 24 h. Here is the method: Compound solutions (50 µL, 3 mM) were mixed with human serum (50 µL) and incubated for 0, 2, 4, 6, 12, and 24 h at 37 °C. Ethanol (250 µL) was added to precipitate serum proteins, and the samples were centrifuged at 14 000 × g for 20 min at 4 °C. Subsequently, 150 µL of supernatant of each sample was analyzed with analytical HPLC and ESI‐MS/MS. HPLC condition: gradient: 100% solution A to 0% solution A from 0 to 60 min; flow rate: 1 mL min^−1; detector wavelength: 214 nm. Each sample had two replicates.
The compound remaining ratio was calculated as (7) Compoundremaining%=CompoundPeakAreanotat0h/CompoundPeakAreaat0h×100%

Series [7] concerns H460 cell line. Nature of the series: cells. It counts as cell-based. Conditions: 24 h. As to the method: as §1, §2

Where two headings read alike, the source gives them in different places. Where a SMILES comes first, the peptide text is derived from it. Where no end group is shown, it is not given here. [ ]: non-standard residue; d: D form. The star is where a group is joined. PEG4 = NCCOCCOCCOCCOCCC(=O)O; Piperidide = C1CCN(*)CC1 A value given as a limit tells only on which side of the number the result lay.

For orientation: IC50 means the concentration needed to halve the response being measured. A high value points to a need for much substance. As to `CC[C@H](C)[C@H](NC(=O)[C@H](CCCCN)NC(=O)[C@@H]1CCCN1C(=O)[C@H](CC(C)C)NC(=O)[C@@H](NC(=O)[C@H](CO)NC(=O)[C@H](CCC(=O)N1CCCCC1)NC(=O)[C@H](CC(C)C)NC(=O)[C@H](CC(=O)O)NC(=O)[C@H](CC(=O)O)NC(=O)[C@H](Cc1ccccc1)NC(=O)[C@@H](NC(=O)[C@H](CCCCN)NC(=O)[C@@H]1CCCN1C(=O)[C@H](Cc1ccccc1)NC(=O)[C@@H](N)Cc1ccccc1)[C@@H](C)CC)[C@@H](C)CC)C(=O)N[C@@H](CC(C)C)C(N)=O` [174-3] (H-FFPKIFDDLE(Piperidide)SILPKIL-NH2), the IC50 stood at 32.6 µM with HEK-293 normal cell line; 24.2 ± 2.13 µM in series [1]; 17.7 ± 2.86 µM in series [2]; 29.2 ± 2.29 µM in [3]; 28.9 ± 3.53 µM in series [4]; 52.9 ± 7.31 µM in the series with HMEC-1 normal cell line. In addition, the concentration for half-maximal inhibition (IC50) with MRC-5 normal cell line was determined as 95.8 µM; in the series on HT-1080 cell line it was 57.6 ± 8.46 µM; in the series with HaCaT normal cell line it was 87 µM; with H838 cell line, 39.5 µM; in the series on H460 cell line [5], 23.7 ± 1.03 µM. The “HC10 (concentration causing 10% of erythrocytes lysis)” value in the series with erythrocytes came out at 51.52 µM.
Consider `CC[C@H](C)[C@H](NC(=O)[C@H](CCCCN)NC(=O)[C@@H]1CCCN1C(=O)[C@H](CC(C)C)NC(=O)[C@@H](NC(=O)[C@H](CO)NC(=O)[C@H](CCC(=O)N1CCCCC1)NC(=O)[C@H](CC(C)C)NC(=O)[C@H](CC(=O)O)NC(=O)[C@H](CC(=O)O)NC(=O)[C@H](Cc1ccccc1)NC(=O)[C@@H](NC(=O)[C@H](CCCCN)NC(=O)[C@@H]1CCCN1C(=O)[C@H](Cc1ccccc1)NC(=O)[C@H](Cc1ccccc1)NC(=O)[C@H](CCCCNC(C)=O)NC(=O)[C@H](C)N)[C@@H](C)CC)[C@@H](C)CC)C(=O)N[C@@H](CC(C)C)C(N)=O` [239-4-Ac] (H-AK(Ac)FFPKIFDDLE(Piperidide)SILPKIL-NH2), for which the “degradation in human serum, comparison in words” value in [6] is on record as “significantly more prone to degradation”.
As for `CC[C@H](C)[C@H](NC(=O)[C@H](CCCCN)NC(=O)[C@@H]1CCCN1C(=O)[C@H](CC(C)C)NC(=O)[C@@H](NC(=O)[C@H](CO)NC(=O)[C@H](CCC(=O)N1CCCCC1)NC(=O)[C@H](CC(C)C)NC(=O)[C@H](CC(=O)O)NC(=O)[C@H](CC(=O)O)NC(=O)[C@H](Cc1ccccc1)NC(=O)[C@@H](NC(=O)[C@H](CCCCN)NC(=O)[C@@H]1CCCN1C(=O)[C@H](Cc1ccccc1)NC(=O)[C@H](Cc1ccccc1)NC(=O)[C@H](CCCCN)NC(=O)[C@H](C)N)[C@@H](C)CC)[C@@H](C)CC)C(=O)N[C@@H](CC(C)C)C(=O)NCC(=O)N1CCC[C@H]1C(=O)N[C@@H](CC(C)C)C(=O)NCC(=O)N[C@@H](CC(C)C)C(=O)N[C@@H](C)C(=O)NCC(=O)NCCOCCOCCOCCOCCC(=O)NCCOCCOCCOCCOCCC(=O)NCCOCCOCCOCCOCCC(=O)NCCOCCOCCOCCOCCC(N)=O` [compound 247] (H-AKFFPKIFDDLE(Piperidide)SILPKILGPLGLAG[PEG4][PEG4][PEG4][PEG4]-NH2), the IC50 is 51.9 ± 5.64 µM in the series on HEK-293 normal cell line; 29.2 ± 1.33 µM in the series with H460 cell line [7]; over 100 µM with HMEC-1 normal cell line; over 100 µM in the series on MRC-5 normal cell line; over 100 µM in the series with HaCaT normal cell line. Further, the “HC10 (concentration causing 10% of erythrocytes lysis)” value in the series on erythrocytes was over 100 µM.
With FFPKIFDDLFSILPKIL-NH2 [compound 228], the concentration for half-maximal inhibition (IC50) is 13.8 ± 1.42 µM in the series with HEK-293 normal cell line; 17.5 ± 0.91 µM with H460 cell line [7]; 30.7 ± 3.14 µM in the series on HMEC-1 normal cell line; 34.1 ± 2.32 µM in the series with MRC-5 normal cell line; 30.5 ± 6.05 µM in the series with HT-1080 cell line; 34 ± 2.66 µM with HaCaT normal cell line. Besides, the IC50 with H838 cell line was 26.4 ± 1.78 µM. Further, the “HC10 (concentration causing 10% of erythrocytes lysis)” value in the series with erythrocytes amounted to 14.57 µM.
FFPKIFDDLSSILPKIL-NH2 [compound 266]: the IC50 with HEK-293 normal cell line, in the series on H460 cell line [7], in the series on HMEC-1 normal cell line, in the series on MRC-5 normal cell line, in the series with HT-1080 cell line and with HaCaT normal cell line was over 100 µM in each case. In addition, the half-inhibitory concentration (IC50) with H838 cell line is over 100 µM. In addition, the “HC10 (concentration causing 10% of erythrocytes lysis)” value in the series on erythrocytes is over 100 µM.
Regarding “FFPLIFGALSSILPKIL-NH2 [compound 111, Temporin‐HLa]”, the IC50 with HEK-293 normal cell line amounted to 8.03 ± 1.1 µM; in the series with H460 cell line [7], 6.03 ± 0.18 µM; in series [1], 5.54 ± 0.04 µM; in series [2] it was 5.17 ± 0.16 µM; in [3], 5.24 ± 0.15 µM; in series [4] it was 5.14 ± 0.22 µM. The 50% inhibitory concentration (IC50) was 13.5 ± 0.8 µM in the series on HMEC-1 normal cell line; 26.3 ± 2.59 µM with MRC-5 normal cell line; 7.37 ± 0.7 µM in the series with HT-1080 cell line; 13.6 ± 0.91 µM in the series on HaCaT normal cell line; 11 ± 1.06 µM in the series on H838 cell line. In addition, the “HC10 (concentration causing 10% of erythrocytes lysis)” value in the series on erythrocytes was 6.59 µM.
